From patent US10485861B2 (priority 2013, dated 2019)

Tested on: Chlamydia trachomatis
Assay type: in vivo, mice
Settings: subcutaneous immunization with UV-inactivated Chlamydia, alone or co-administered with the named adjuvant

CC(C)Cn1cnc2c(N)nc3ccccc3c21 [IMQ, imiquimod]
Protection against genital Chlamydia challenge (Chlamydia load): did not provide protection or tolerance
